Values quoted from earlier work as cited in patent publication US20090238905A1, “INFLAMMATION REDUCING ACTION OF SYNERGISTIC MIXTURES OF BISABOLOL AND GINGER EXTRACTS” (SYMRISE, Inc., priority 2008, published 2009).

Row | SMILES | LTB4 inhibition (LTB4) | IL-1α inhibition (IL-1α) | PGE2 inhibition (PGE2) | inhibition of COX-2 expression (COX-2) | inhibition of PGE2 production (HL-60 cells) | inhibition of activation of TNF-α (TNF-α)
1 | CC(C)=CCC[C@](C)(O)C1CC=C(C)CC1 (stereo partly shown) [Bisabolol, bisabolol] | very effective | very effective | not as a PGE2 inhibitor | – | – | –
2 | CCCCC[C@H](O)CC(=O)CCc1ccc(O)c(OC)c1 [Gingerol] | – | did not have an effect | – | inhibit | inhibit PGE2 production | inhibit activation of TNF-α
